Measured values published in the NIST ThermoML archive (doi:10.1016/j.jct.2016.09.014).
± gives the expanded uncertainty stated by the source.

Assay: mn = molality of the nth substance listed, in mol/kg
Conditions: 298.15 K, 101.3 kPa, Liquid; for binary diffusion coefficient: Taylor dispersion method; for mass density: Vibrating tube method

For `NCCCC(=O)O` [4-aminobutanoic acid] + O, the binary diffusion coefficient (m1 = 0.001003) was 7.8e-10 m2/s, the binary diffusion coefficient (m1 = 0.005016) was 7.79e-10 m2/s and the binary diffusion coefficient (m1 = 0.01004) was 7.78e-10 m2/s. The binary diffusion coefficient (m1 = 0.02009) was 7.77e-10 m2/s, the binary diffusion coefficient (m1 = 0.03015) was 7.76e-10 m2/s and the binary diffusion coefficient (m1 = 0.05033) was 7.72e-10 m2/s. It also gave a binary diffusion coefficient (m1 = 0.101) of 7.65e-10 m2/s, a mass density (m1 = 0.00106) of 997.083 ± 0.31 kg/m3 and a mass density (m1 = 0.00258) of 997.127 ± 0.31 kg/m3. The mass density (m1 = 0.00467) was 997.199 ± 0.31 kg/m3, the mass density (m1 = 0.00517) was 997.203 ± 0.31 kg/m3 and the mass density (m1 = 0.00833) was 997.308 ± 0.31 kg/m3. It also gave a mass density (m1 = 0.01088) of 997.389 ± 0.31 kg/m3, a mass density (m1 = 0.01968) of 997.658 ± 0.31 kg/m3 and a mass density (m1 = 0.03823) of 998.069 ± 0.31 kg/m3. For the same compound, the mass density (m1 = 0.05427) was 998.687 ± 0.31 kg/m3, the mass density (m1 = 0.06297) was 998.944 ± 0.31 kg/m3 and the mass density (m1 = 0.07297) was 999.113 ± 0.31 kg/m3. It also gave a mass density (m1 = 0.1017) of 1000.1 ± 0.31 kg/m3.
